Source: patent US10407467B2, “Polymyxin derivatives and their use in combination therapy together with different antibiotics” (priority 2013, dated 2019)
Bridge positions count the residues as written; N and C are the ends. Square brackets hold non-standard residues; d marks the D form. Peptide text beside a SMILES is read from it. * marks the point of attachment. ξ: configuration not given here. ξβ3hGly(cHex) = NC(CC(=O)*)C1CCCCC1; Thr(3ξ) = CC(O)[C@H](N)C(=O)O; Dab = NCC[C@H](N)C(=O)O

How the values were obtained:
Pseudomonas aeruginosa = assay: MIC, sole activity (no second agent); assay type: cell-based
In short: (§1)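 Up to four strains per species were tested in cation-adjusted Mueller-Hinton broth, with inoculum made by direct colony suspension from 18-24 hour Mueller-Hinton agar plates, adjusted to 0.5 McFarland. Duplicates differing by under 2-fold gave the lower value; greater spread voided the run. Values are relative to Polymyxin B.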

Acinetobacter baumannii = assay: MIC, sole activity (no second agent); assay type: cell-based
In short: as §1

Escherichia coli = assay: MIC, sole activity (no second agent); assay type: cell-based
In short: as §1

Klebsiella pneumoniae = assay: MIC, sole activity (no second agent); assay type: cell-based
In short: as §1

[1] = system: Escherichia coli isolate ATCC25922; details: 10 mg/kg/day (5 mg/kg BID subcutaneous), neutropenic CD-1 mice, 24 h post-infection
Protocol: At 1 h, the CFU count was determined from 5 mice and the remaining mice (five per group) were treated with a subcutaneous injection of the drug at +1 and 6 hr post-infection.
Twenty-four hours after infection, the mice were euthanized humanely. The muscle of the right thigh of each animal was harvested, homogenized, serially diluted and plated on Brain Heart Infusion agar+0.5% charcoal (w/v) for CFU determination. Decrease of the total CFU of right thigh as compared to control counts at 24 h post-infection was determined for each dose group.

[2] = Second Agent none (Table 7B, by row order)

Compound: CC(C)C[C@@H]1NC(=O)[C@@H](Cc2ccccc2)NC(=O)[C@H](CCN)NC(=O)[C@@H](NC(=O)[C@H](CCN)NC(=O)[C@@H](NC(=O)CC(N)C2CCCCC2)C(C)O)CCNC(=O)[C@H](C(C)O)NC(=O)[C@H](CCN)NC(=O)[C@H](CCN)NC1=O (stereo partly drawn) [Example 10, [3(R,S)-3-Amino-3-cyclohexane-propanoyl]Polymyxin B nonapeptide] ({ξβ3hGly(cHex)}-[Thr(3ξ)][Dab][Dab][Dab][dF]L[Dab][Dab][Thr(3ξ)]; lactam 3-C)
- MIC P. aeruginosa CCUG 59626 (Pseudomonas aeruginosa; P. aeruginosa CCUG 59626, second agent none): 0.25 micrograms/mL
- MIC P. aeruginosa ATCC 27853 (Pseudomonas aeruginosa; [2]): 0.25 micrograms/mL
- MIC P. aeruginosa CCUG 59626 (Pseudomonas aeruginosa; [2]): 0.25 micrograms/mL
- MIC P. aeruginosa CCUG 59626 (Pseudomonas aeruginosa; Second Agent none (Table 7C)): 0.25 micrograms/mL
- MIC P. aeruginosa ATCC 10145 (Pseudomonas aeruginosa; Second Agent none (Table 7E)): 0.25 micrograms/mL
- MIC P. aeruginosa ATCC 10145 (Pseudomonas aeruginosa; Table 7F, P. aeruginosa ATCC 10145, second agent none): 0.25 micrograms/mL
- MIC P. aeruginosa ATCC 10145 (Pseudomonas aeruginosa; Table 7H, P. aeruginosa ATCC 10145, second agent none): 0.25 micrograms/mL
- MIC P. aeruginosa ATCC 27853 (Pseudomonas aeruginosa; in the absence of Rifampicin, strain ATCC27853): 0.5 micrograms/mL
- MIC P. aeruginosa ATCC-47 (Pseudomonas aeruginosa; in the absence of Rifampicin, strain ATCC-47): 1 micrograms/mL
- MIC P. aeruginosa ATCCCRM-9027 (Pseudomonas aeruginosa; in the absence of Rifampicin, strain ATCCCRM-9027): 0.25 micrograms/mL
- MIC P. aeruginosa CCUG 59626 (Pseudomonas aeruginosa; in the absence of Rifampicin, strain CCUG 59626): 0.25 micrograms/mL
- MIC A. baumannii NCTC 13424 (Acinetobacter baumannii; [2]): 2 micrograms/mL
- MIC A. baumannii NCTC 13424 (Acinetobacter baumannii; Second Agent none (Table 7E)): 0.5 micrograms/mL
- MIC A. baumannii NCTC 13424 (Acinetobacter baumannii; Table 7F, A. baumannii NCTC 13424, second agent none): 0.5 micrograms/mL
- MIC A. baumannii NCTC 13424 (Acinetobacter baumannii; Table 7H, A. baumannii NCTC 13424, second agent none): 0.5 micrograms/mL
- MIC A. baumannii ATCC13424 (Acinetobacter baumannii; in the absence of Rifampicin, strain ATCC13424): 1 micrograms/mL
- MIC A. baumannii ATCCBAA-747 (Acinetobacter baumannii; in the absence of Rifampicin, strain ATCCBAA-747): 0.5 micrograms/mL
- MIC A. baumannii CCUG57249 (Acinetobacter baumannii; in the absence of Rifampicin, strain CCUG 57249): 0.5 micrograms/mL
- MIC A. baumannii NCTC 13423 (Acinetobacter baumannii; in the absence of Rifampicin, strain NCTC13423): 0.125 micrograms/mL
- MIC E. coli NCTC9001 (Escherichia coli; E. coli NCTC9001, second agent none): 4 micrograms/mL
- MIC E. coli NCTC9001 (Escherichia coli; Second Agent none (Table 7A)): 4 microgram/mL
- MIC E. coli ATCC25922 (Escherichia coli; Second Agent none (Table 7B)): 4 micrograms/mL
- MIC E. coli CCUG 59342 (Escherichia coli; Second Agent none (Table 7B)): 0.5 micrograms/mL
- MIC E. coli NCTC9001 (Escherichia coli; Second Agent none (Table 7B)): 8 micrograms/mL
- MIC E. coli NCTC9001 (Escherichia coli; Second Agent none (Table 7C)): 4 micrograms/mL
- MIC E. coli ATCC25922 (Escherichia coli; Second Agent none (Table 7E)): 8 micrograms/mL
- MIC E. coli NCTC 13441 (Escherichia coli; Second Agent none (Table 7E)): 8 micrograms/mL
- MIC E. coli ATCC25922 (Escherichia coli; Table 7F, E. coli ATCC25922, second agent none): 8 micrograms/mL
- MIC E. coli NCTC 13441 (Escherichia coli; Table 7F, E. coli NCTC 13441, second agent none): 8 micrograms/mL
- MIC E. coli ATCC25922 (Escherichia coli; Table 7G, E. coli ATCC25922, second agent none): 8 micrograms/mL
- MIC E. coli ATCC25922 (Escherichia coli; Table 7H, E. coli ATCC25922, second agent none): 8 micrograms/mL
- MIC E. coli NCTC 13441 (Escherichia coli; Table 7H, E. coli NCTC 13441, second agent none): 8 micrograms/mL
- MIC E. coli ATCC25922 (Escherichia coli; Table 7I, E. coli ATCC25922, second agent none): 8 micrograms/mL
- MIC E. coli ATCC25922 (Escherichia coli; in the absence of Rifampicin, strain ATCC25922): 2 micrograms/mL
- MIC E. coli NCTC9001 (Escherichia coli; in the absence of Rifampicin, strain NCTC9001): 4 micrograms/mL
- MIC K. pneumoniae ATCC BAA-1706 (Klebsiella pneumoniae; K. pneumoniae ATCC BAA-1706, second agent none): 0.5 micrograms/mL
- MIC K. pneumoniae CCUG 59348 (Klebsiella pneumoniae; K. pneumoniae CCUG 59348, second agent none): >32 micrograms/mL
- MIC K. pneumoniae NCTC 13442 (Klebsiella pneumoniae; K. pneumoniae NCTC 13442, second agent none): >32 micrograms/mL
- MIC K. pneumoniae CCUG 59348 (Klebsiella pneumoniae; Second Agent none (Table 7A)): >32 microgram/mL
- MIC K. pneumoniae CCUG 59626 (Klebsiella pneumoniae; Second Agent none (Table 7A)): 0.25 microgram/mL
- MIC K. pneumoniae NCTC 13442 (Klebsiella pneumoniae; Second Agent none (Table 7A)): >32 microgram/mL
- MIC K. pneumoniae CCUG 59348 (Klebsiella pneumoniae; Second Agent none (Table 7B)): >32 micrograms/mL
- MIC K. pneumoniae NCTC 13442 (Klebsiella pneumoniae; Second Agent none (Table 7B)): >32 micrograms/mL
- MIC K. pneumoniae ATCC 4352 (Klebsiella pneumoniae; [2]): 0.5 micrograms/mL
- MIC K. pneumoniae ATCC BAA-1706 (Klebsiella pneumoniae; [2]): 0.5 micrograms/mL
- MIC K. pneumoniae CCUG 59348 (Klebsiella pneumoniae; Second Agent none (Table 7C)): >32 micrograms/mL
- MIC K. pneumoniae NCTC 13442 (Klebsiella pneumoniae; Second Agent none (Table 7C)): >32 micrograms/mL
- MIC K. pneumoniae ATCC 4352 (Klebsiella pneumoniae; Second Agent none (Table 7E)): 1 micrograms/mL
- MIC K. pneumoniae CCUG 59349 (Klebsiella pneumoniae; Second Agent none (Table 7E)): 8 micrograms/mL
- MIC K. pneumoniae ATCC 4352 (Klebsiella pneumoniae; Table 7F, K. pneumoniae ATCC4352, second agent none): 1 micrograms/mL
- MIC K. pneumoniae CCUG 59349 (Klebsiella pneumoniae; Table 7F, K. pneumoniae CCUG 59349, second agent none): 8 micrograms/mL
- MIC K. pneumoniae ATCC 4352 (Klebsiella pneumoniae; Table 7G, K. pneumoniae ATCC4352, second agent none): 1 micrograms/mL
- MIC K. pneumoniae ATCC 4352 (Klebsiella pneumoniae; Table 7H, K. pneumoniae ATCC4352, second agent none): 1 micrograms/mL
- MIC K. pneumoniae CCUG 59349 (Klebsiella pneumoniae; Table 7H, K. pneumoniae CCUG 59349, second agent none): 8 micrograms/mL
- MIC K. pneumoniae ATCC 4352 (Klebsiella pneumoniae; Table 7I, K. pneumoniae ATCC4352, second agent none): 1 micrograms/mL
- MIC K. pneumoniae ATCC 4352 (Klebsiella pneumoniae; in the absence of Rifampicin, strain ATCC 4352): 1 micrograms/mL
- MIC K. pneumoniae ATCC-BAA2146 (Klebsiella pneumoniae; in the absence of Rifampicin, strain ATCC-BAA2146): 32 micrograms/mL
- MIC K. pneumoniae CCUG-59348 (Klebsiella pneumoniae; in the absence of Rifampicin, strain CCUG-59348): >32 micrograms/mL
- MIC K. pneumoniae NCTC-13438 (Klebsiella pneumoniae; in the absence of Rifampicin, strain NCTC-13438): >32 micrograms/mL
- reduction in bacterial counts [1]: over 3 log10
